Broadly, the melting point is the temperature, or range, at which the solid turns liquid. For orientation: IC50 means the concentration at which inhibition is half-maximal. A lower IC50 goes with inhibition by little substance. As usually defined, the logP is the decadic logarithm of the partition coefficient of the neutral form, usually between octanol and water.

The values that follow come from patent US20210284615A1, “VORTIOXETINE ANALOGUE AND USE AND PREPARATION THEREOF” (priority 2016, published 2021).

“And” between values parts separate entries of the source, which are not always exact repeats. Identical values can stand only once. Like-named read-outs stand apart in the source and are kept apart here.

In series [1] the target is T1, SLC6A4 (Homo sapiens, UniProt P31645).
T1 construct: host or cells: CHO cells (Chinese hamster ovary, Cat #CCL-61), transient transfection with FuGENE HD
As to the kind of experiment: [3H]5-hydroxytryptamine (5-HT) reuptake inhibition in CHO cells transfected with pcDNA3.1-SLC6A4-His. In kind it is cell-based. As to conditions: 25 nM [3H]5-hydroxytryptamine, 30 min. On the procedure:
SLC6A4 gene from plasmid Pcmv6-XL4-SLC6A4 (Origene, Cat #SC119478) was amplified by PCR (polymerase chain reaction), and a HIS tag was added to the C terminal, and then inserted into pcDNA3.1 (−) vector at 5′EcoR1 and 31-lind111 restriction enzyme cutting sites to build pcDNA3.1-SLC6A4-His.
CHO cells in logarithmic growth period (Chinese hamster ovary cells, Institute of Cell Biology, Chinese Academy of Sciences, Cat #CCL-61) were collected and counted. The cells were resuspended in F-12 culture media (Gibco, Cat #11330-032) and inoculated on a 96-well plate with 100 μL (20000 cells/well) per well. It was incubated in 5% CO2 incubator (relative humidity 100%) at 37° C. for 24 h.
The above modified plasmids (0.48 μg) were diluted with Opti-MEM culture medium (25 μL, Gibco, Cat #11058021), and blew gently to mix homogenously. […]
Compound 1 and vortioxetine were respectively diluted to 1 mM with Opti-MEM culture medium, then diluted 10 times per 4 times gradient, and then added to the transfected cell wells by 20 μL/well (the corresponding concentrations were 100 μM-0.0004 μM, in total of 10 concentration points, the concentration ratio between each concentration point was 4, each concentration included 3 parallel wells). […] 50 μL of lysed cell fluid was taken, and 200 μL of scintillation solution was added thereto, and reading was conducted with MicroBeta2. […]

In series [2] the test system is KM mice. As to the kind of experiment: Forced swimming test in mice. The format is in vivo. To be noted: 20 mg/kg oral gastric lavage, 1 hour after administration, last 4 min of 6 min swim. On the procedure: KM mice (male, 38-42 g, Experimental Animal Center, Chongqing Medical University) were randomly divided into groups with 6 mice per group. After fasted for 4 h, the mice were placed in a glass cylinder with a diameter of 18 cm, height of 40 cm, water depth of 15 cm (water temperature 25° C.) to swim for 6 min, then dried with a warm air blower. The animals in each experiment group were administrated a solution of corresponding agent (Oral administration of gastric lavage, 20 mg/kg) according to the table below. After 1 hour of administration, the mice were placed in a glass cylinder with a diameter of 18 cm, height of 40 cm, water depth of 15 cm (water temperature 25° C.) to swim for 6 min. The swimming of the mice was recorded within 6 min by a camera system, and the data were automatically collected and analyzed by Noldus software. The quiescent time during swimming was recorded and counted within the last 4 min (for the experiment method, see THE JOURNAL OF PHARMACOLOGY AND EXPERIMENTAL THERAPEUTICS (2012), Vol. 340, No. 3: 666-675).

Series [3] in a line: Test of blood drug level in rats. The format is in vivo, SD rats. As to conditions: for Blood drug level: intragastric, Vortioxetine 20 mg/kg (rats A1-A4), Compound 3 22.8 mg/kg (rats B1-B4), individual rats, in ng/mL (unit assumed). The protocol:
SD rats (male, 180-220 g, Experimental Animal Center, Chongqing Medical University) were randomly divided into groups with 4 rats per group. Food was prohibited, but not water, for 8 hours before administration.
Blood samples were collected from the orbital venous plexus at 0, 1, 2, 4, 6, 8 h after administration, wherein at least 0.3 ml was taken at each time point, and heparin was used for anticoagulant. The obtained whole blood (200 μl) was added to acetonitrile (800 LA, vortexed and shaken for 1 min, and then centrifuged for 10 min at 12000 rpm. The supernatant was taken and kept at −20° C., and the blood drug level of the supernatant was determined by LC/MS/MS. The data for each animal in groups are as follows: […]

Series [4] deals with 5-HTP induced head-twitch model. Description: Head-twitch test in mice (5-HTP induced). In kind it is in vivo, KM mice. As to conditions: 20 mg/kg intraperitoneal injection, then 200 mg/kg 5-HTP, within 0-10 min. On the procedure: KM mice (male, 18-22 g, Experimental Animal Center, Chongqing Medical University) were randomly divided into 6 mice per group. According to the below table, the animals in each experiment group were administrated a solution of corresponding agent, and then 200 mg/kg 5-HTP (5-hydroxytryptophan). The effects of vortioxetine and Compound 3 on the frequency of head-twitch of mice within 0-10 min were determinate (see [i]Brit. J. Pharmacol. (1963), 20, 106-120 for detailed experiment methods).

The nature of series [5]: Determination of lipid-water partition coefficient. In kind it is physicochemical. On the procedure:
Vortioxetine hydrobromide (6 mg) and Compound 3 (6 mg) were dissolved respectively in a mixed solution composed of a pH 7.4 of phosphate buffer (3 ml) and n-octyl alcohol (3 ml), and the mixture was allowed to stand for 3 hours at 37° C. The concentration of each compound in water phase and oil phase was respectively determined, and calculated by logP=[…]log (Coil/Cwater). The results are as follows: logPvortioxetine=2.1; logPcompound 3=2.7.

For series [6] the following is noted: human, cited from earlier work.
The nature of series [7]: Test of brain concentration and plasma concentration. The format is in vivo, KM mice. To be noted: male, KM, mouse, Compound 1 23.6 mg/kg. On the procedure:
KM mice (male, 18-22 g, Experimental Animal Center, Chongqing Medical University) were randomly divided into groups with 6 mice per group. In accordance with the table below, the animals in each group were respectively injected intravenously with equal moles of vortioxetine (20 mg/kg) and Compound 1 (23.6 mg/kg). Samples of blood and brain tissue of the mouse were taken at 1 and 2 hours after injection. The concentrations of vortioxetine and Compound 1 in blood plasma and brain tissue were respectively measured, and the ratios (concentration in brain tissue/concentration in blood plasma) were calculated.

For series [8] the following is noted: 2 h after oral 20 mg/kg, male Listar Hooded rats; cited from earlier work.
For series [9] the following is noted: oral administration; cited from earlier work.

T1 sequence (P31645 whole entry): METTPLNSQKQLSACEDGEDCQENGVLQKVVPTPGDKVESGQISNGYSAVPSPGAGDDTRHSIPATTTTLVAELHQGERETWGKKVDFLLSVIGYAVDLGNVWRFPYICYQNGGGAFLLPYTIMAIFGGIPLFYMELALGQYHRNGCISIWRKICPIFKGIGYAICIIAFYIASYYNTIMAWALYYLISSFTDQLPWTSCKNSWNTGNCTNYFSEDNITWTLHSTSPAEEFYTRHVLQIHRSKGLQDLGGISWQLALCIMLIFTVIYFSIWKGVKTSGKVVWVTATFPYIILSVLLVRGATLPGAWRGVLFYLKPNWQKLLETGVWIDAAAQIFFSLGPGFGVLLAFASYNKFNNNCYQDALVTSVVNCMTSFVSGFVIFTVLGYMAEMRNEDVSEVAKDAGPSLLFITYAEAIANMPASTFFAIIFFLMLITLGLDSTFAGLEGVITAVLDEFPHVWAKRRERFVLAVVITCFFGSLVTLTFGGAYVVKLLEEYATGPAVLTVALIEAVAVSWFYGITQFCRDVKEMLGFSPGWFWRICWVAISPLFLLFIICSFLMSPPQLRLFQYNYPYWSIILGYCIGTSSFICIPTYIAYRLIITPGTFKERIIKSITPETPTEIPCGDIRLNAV

`Cc1cc(C(F)(F)F)ccc1Sc1ccccc1N1CCNCC1` [Compound 1, 1-[2-(2-methyl-4-trifluoromethylphenylthio)phenyl]piperazine] yielded a melting point of 206 to 208 °C. The compound also registered a concentration for half-maximal inhibition (IC50) in [1] of 231 nM.

The compound `Br.Cc1cc(C(F)(F)F)ccc1Sc1ccccc1N1CCNCC1` [Compound 3, 1-[2-(2-methyl-4-trifluoromethylphenylthio)phenyl] piperazine hydrobromide] registered a melting point of 170 to 172 °C. The Quiescent time in series [2] was found to be 107 ± 31 s. Besides, the Blood drug level in series [3] (0 h, hydrobromide) is 0.815 and 2.195 and 1.62 and 0.975. In addition, in [3] (1 h, hydrobromide), the Blood drug level was 458.925 and 276.675 and 351.38 and 412.775. Moreover, the Blood drug level in [3] (2 h, hydrobromide) is 587.71 and 237.72 and 441.03 and 648.63. Moreover, the Blood drug level in series [3] (4 h, hydrobromide) is 726.37 and 181.565 and 334.54 and 297.135. Further, the Blood drug level in series [3] (6 h, hydrobromide) is 421.06 and 139.79 and 230.075 and 159.715. Besides, the Blood drug level in series [3] (8 h, hydrobromide) was 386.805 and 37.895 and 109.47 and 78.5. Further, in [3] (oral, all time points), the “blood drug levels compared with equal moles of vortioxetine” value is “higher”. In series [4], the Number of head-twitch came out at 45.0 ± 29.0. This compound had a lipophilicity (logP) at 3 h in [5] (pH 7.4) of 2.7.

Consider `Cc1cc(C(=O)O)ccc1Sc1ccccc1N1CCNCC1` [LUAA34443], for which, in [6] (oral 14C-vortioxetine free base 50 mg, one combined value for both metabolites), the “share of LUAA34443 and LUAA34443 glucuronide together” value is on record as 44%.

Turning to `Cc1ccc(Sc2ccccc2N2CCNCC2)c(C)c1` [Vortioxetine], in series [2], the Quiescent time came out at 136 ± 37 s. Also, in [7] (brain/plasma, 1 hour after intravenous injection, vortioxetine 20 mg/kg, read-out: Concentration ratio in brain tissue and plasma), the Kp at 1 h amounted to 60.2 ± 8.64. Besides, the Kp at 2 h in series [7] (brain/plasma, 2 hours after intravenous injection, vortioxetine 20 mg/kg, read-out: Concentration ratio in brain tissue and plasma) worked out at 44.6 ± 13.1. Further, the concentration at 1 h in series [7] (brain, 1 hour after intravenous injection, equal moles: vortioxetine 20 mg/kg, read-out: Concentration in brain tissue) stood at 15400 ± 1400 ng/g; in [7] (plasma, 1 hour after intravenous injection, vortioxetine 20 mg/kg, read-out: Blood drug level), 261 ± 53.5 ng/mL. For the same compound, the concentration at 2 h in [7] (brain, 2 hours after intravenous injection, vortioxetine 20 mg/kg, read-out: Concentration in brain tissue) worked out at 7490 ± 560 ng/g; in [7] (plasma, 2 hours after intravenous injection, vortioxetine 20 mg/kg, read-out: Blood drug level), 167 ± 49.5 ng/mL. Besides, the “distribution concentration in brain” value in [8] is 2.77 µg/g. Further, the “distribution concentration in kidney” value in series [8] is 10.3 µg/g. For the same compound, the “distribution concentration in liver” value in [8] is 22.3 µg/g. Besides, the “distribution concentration in lung” value in series [8] is 15.5 µg/g. In [6] (4 hours after oral 14C-vortioxetine free base 50 mg), the “parent drug share in plasma” value was “about 8%”. Also, the Blood drug level in series [3] (0 h) is 0; in series [3] (1 h), 48.59 and 163.07 and 183.96 and 256.56; in [3] (2 h) it was 85.335 and 149.685 and 164.88 and 195.125; in series [3] (4 h) it was 34.54 and 90.305 and 94.53 and 164.845; in series [3] (6 h), 17.095 and 47.74 and 40.91 and 72.6; in series [3] (8 h), 7.13 and 6.76 and 23.35 and 26.315. Moreover, in series [4], the Number of head-twitch came out at 56 ± 10. Moreover, the bioavailability result in [9] is listed as “about 75%”. For the same compound, it took 267 nM to reach half-maximal inhibition in [1] (IC50). For the same compound, the lipophilicity (logP) at 3 h in series [5] (n-octyl alcohol / pH 7.4 phosphate buffer, pH 7.4 phosphate buffer / n-octyl alcohol, 3 hours at 37° C., read-out: logP (lipid-water partition coefficient)) stood at 2.1.
